Source: patent publication US20040076622A1, “Local production and/or delivery of anti-cancer agents by stromal cell precursors” (Board of Regents, The University of Texas System, priority 2002, published 2004)
Like-named read-outs stand apart in the source and are kept apart here.

Legend:
CML = settings: cited from earlier work
KBM5 cells = test: Growth inhibition of KBM5 cells by STI and IFN-α; assay type: cell-based; settings: ST1571 0.5, 1.0, 2.0 tmol; IFNα 2,000, 5,000, 10,000 U
Source text: (§1) The effects of IFNA and ST1571 on STI-resistant KBM5 cells were studied.

KBM5-STI cells = test: Growth inhibition of STI-resistant KBM5 cells by STI and IFN-α; assay type: cell-based; settings: for Growth inhibition of KBM5-STI cells: ST1571 0.5, 1.0, 2.0 tmol, IFNα 2,000, 5,000, 10,000 U
Source text: as §1

[1] = Systemic expression of IFN-α after intramuscular injection of AAV in mice (ELISA); assay type: in vivo, mouse; settings: one application of MFP given IP, mice injected with inducible AAVs
Method: In vivo testing. To initiate a in vivo culture model of CML, two BCR-ABL+ cell lines, the K562 (which grow extramedullary in nu/nu mice) or BV173 (which grows intra bone marrow in BalbC/nu mice) were injected into respective mice. […] Utilizing the BV173 cell line we tested three cell doses and found one million BV173 cells were sufficient to kill the mice within 45 days, whereas 5×10^5 BV173 cells allowed the mice to survive for 60+ days with one mice still surviving. […] As an alternative to using MSCs as a cell based therapy, the AAV vectors may be directly inject into the muscle, thereby allowing secretion of IFN-α systemically. Evaluation of this route of delivery was performed by an intramuscular injection of […] AAV-CMV-IFN-α or 5×10^10 GE of AAV-Gal4hPRL-65AD and 5×10^10 GE of AAV-G5E-IFN-α into the quadriceps of mice. Mice were bled weekly and the serum was analyzed for IFN-α expression using the Biosource ELISA kit. As shown in FIG. 9 circulating levels of hIFN-α was detected in the peripheral blood, and more importantly, it was identified over the high background level seen in these nu/nu animals. […] Using this mouse model circulating levels of human IFN-α were detected. Human MSC may also be detected using molecular, fluorescent, and immunohistochemical approaches.

MFP-regulated promoter = test: MFP dependent induction of IFN-α from AAV-infected MSC (ELISA); assay type: cell-based, human; settings: MSC infected with MFP regulated AAV
Method: Regulated expression from a drug inducible AAV vector. An AAV construct was used that expressed IFN-α under the control of a MFP-regulated promoter, to infect normal donor MSC in vitro. Briefly, MSC were infected with 10^3 GE of AAV-IFN-α and 10^3 GE of AAV-gal4prlMFP, and expanded for 10 additional days. These cells were subcultured into 12 well dished were MFP (dissolved in 0.1% ETOH) or solvent carrier was added at the concentrations noted. MSC infected w/ the MFP regulated AAV, express IFN-α only after 18 h exposure to MFP (FIG. 4A). Three drug concentrations were tested, each dose was 10-fold less than the previous one, and with the initial dose of 10^−7 M being 3 logs less than the dose commonly given for chemical abortions in humans. Of note is that a one-time addition of MFP results in a prolonged 8-10 day expression of IFN-α, peaking at 4-5 days after drug addition. […] Ten days after IFN-α level reached background activity we waited 3 additional days and added another dose of 10^-8 M MFP. […]
Exemplary methods for harvesting, culture, and infection of MSC. […] Forty-eight hours later cells are analyzed for βgal expression using X-gal histochemical staining or analysis with FACS utilizing CM-FDG, as in Marini et al. (1999). […] Six to 24 h later, supernatant is collected and analyzed via Quantikine IFN-α ELISA (Biosource International Inc Camarillio Calif.).

melanoma = settings: cited from earlier work
MSC = test: Effect of MDA7 on growth of the MSC; assay type: cell-based; settings: MSC growth not affected
Method: MSC were infected with a β-gal MDA7 adenovirus provided by Dr. Sunil Chada (Introgen, Houston, Tex.) at 50, 500, 5,000, and 25,000 MOI. All experiments were performed in duplicate supernatant from control and MDA7-MSC was obtained and added to KBM5 and KBM5-STI cells and assayed at 24 and 72 hours. Co-cultures of β-gal MDA7-MSC and control MSC with KBM5 (STI-sensitive) and KBM5-STI (STI-resistant) cells were also performed, with the MSC growing to near-confluency and 0.125×10^6 cells/mL plated on the MSC in 12 well plates. All wells were assayed at 24 and 72 hours.

[2] = patients with chronic phase CML

Cc1ccc(NC(=O)c2ccc(CN3CCN(C)CC3)cc2)cc1Nc1nccc(-c2cccnc2)n1 [ST1571]
Complete cytogenetic remissions (CML; [2]): 95%
Hematological remission (CML; [2]): > 90%
RT-PCR negativity (CML; [2]): 8%
Growth inhibition of KBM5 cells (KBM5 cells): highly sensitive
Growth inhibition of KBM5-STI cells (KBM5-STI cells): resistant

CC#C[C@]1(O)CC[C@H]2[C@@H]3CCC4=CC(=O)CCC4=C3[C@@H](c3ccc(N(C)C)cc3)C[C@@]21C [MFP, mifpristone]
Period over which the single peak of IFN-α activity decays [1]: 7 days
Time of peak IFN-α expression after drug addition (MFP-regulated promoter): 4 to 5 days
Duration of IFN-α expression after a one-time addition of MFP (MFP-regulated promoter; 18 h exposure): 8 to 10 days

IFNα
CCR's lost (CML; CML patients at 5 years): 42%
CCR's lost (CML; CML patients at 8 years): 50%
Patients able to maintain high concentrations (CML; patients who received INFα for CML): less than 30%
Overall response rate (melanoma; advanced melanoma): 20%
Improvement in the fraction of patients who are disease-free (melanoma; high risk melanoma): 42%
Growth inhibition of KBM5 cells (KBM5 cells): pronounced growth inhibitory effects
Growth inhibition of KBM5-STI cells (KBM5-STI cells): but not on KBM5-STI cells
Enhancement of the STI effect by IFNα (KBM5-STI cells; in vitro, KBM5 and KBM5-STI cells): did not enhance the STI effect

B1: MDA7: melanoma differentiation associated protein 7, classified as interleukin-24 (protein, UniProt Q13007 52-206, looked up)
Interleukin-24: QEFHFGPCQVKGVVPQKLWEAFWAVKDTMQAQDNITSARLLQQEVLQNVSDAESCYLVHTLLEFYLKTVFKNYHNRTVEVRTLKSFSTLANNFVLIVSQLQPSQENEMFSIRDSAHRRFLLFRRAFKQLDVEAALTKALGEVDILLTWMQKFYKL
Toxic effects on MSC (MSC): no toxic effects
